Reference: article PMC8333425, “Discovery of a dual Ras and ARF6 inhibitor from a GPCR endocytosis screen” (Nature Communications, 2021)
“Also recorded” adds a separate entry of the source.

Columns and labels:
[1] = biological target: T1, 384 kinases from the human genome (Homo sapiens, UniProt Q96BR1); assay: KINOMEscan kinase binding assay; conditions: kinase SGK3 (Entrez SGK3)
T1 construct: purchased Eurofin/DiscoverX
Summary of the method: (§1)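 A panel of 384 human kinases was profiled by KINOMEscan binding in the presence of 10 µM compound. Kinase–ligand binding was given as percent of DMSO control, averaged from duplicates in a single run, with an S(10) selectivity score.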

[2] = biological target: T2, 384 kinases from the human genome (Homo sapiens, UniProt Q32MK0); assay: KINOMEscan kinase binding assay; conditions: kinase MLCK (Entrez MYLK3)
T2 construct: purchased Eurofin/DiscoverX
Summary of the method: as §1

[3] = system: 384 kinases from the human genome; assay: KINOMEscan kinase binding assay; conditions: 10 µM of 21
Summary of the method: as §1

[4] = biological target: T3, 384 kinases from the human genome (Homo sapiens, UniProt O95382); assay: KINOMEscan kinase binding assay; conditions: kinase ASK2 (Entrez MAP3K6)
T3 construct: purchased Eurofin/DiscoverX
Summary of the method: as §1

[5] = biological target: T4, 384 kinases from the human genome (Homo sapiens, UniProt Q14164); assay: KINOMEscan kinase binding assay; conditions: kinase IKK-epsilon (Entrez IKBKE)
T4 construct: purchased Eurofin/DiscoverX
Summary of the method: as §1

[6] = biological target: T5, 384 kinases from the human genome (Homo sapiens, UniProt Q13546); assay: KINOMEscan kinase binding assay; conditions: kinase RIPK1 (Entrez RIPK1)
T5 construct: purchased Eurofin/DiscoverX
Summary of the method: as §1

[7] = biological target: T6, 384 kinases from the human genome (Homo sapiens, UniProt P52564); assay: KINOMEscan kinase binding assay; conditions: kinase MEK6 (Entrez MAP2K6)
T6 construct: purchased Eurofin/DiscoverX
Summary of the method: as §1

[8] = biological target: T7, 384 kinases from the human genome (Homo sapiens, UniProt Q9UQB9); assay: KINOMEscan kinase binding assay; conditions: kinase AURKC (Entrez AURKC)
T7 construct: purchased Eurofin/DiscoverX
Summary of the method: as §1

[9] = biological target: T8, 384 kinases from the human genome (Homo sapiens, UniProt Q9UQ88); assay: KINOMEscan kinase binding assay; conditions: kinase CDC2L2 (Entrez CDC2L2)
T8 construct: purchased Eurofin/DiscoverX
Summary of the method: as §1

[10] = biological target: T9, 384 kinases from the human genome (Homo sapiens, UniProt P80192); assay: KINOMEscan kinase binding assay; conditions: kinase MLK1 (Entrez MAP3K9)
T9 construct: purchased Eurofin/DiscoverX
Summary of the method: as §1

[11] = biological target: T10, 384 kinases from the human genome (Homo sapiens, UniProt P11802); assay: KINOMEscan kinase binding assay
T10 construct: purchased Eurofin/DiscoverX
Summary of the method: as §1

[12] = biological target: T11, 384 kinases from the human genome (Homo sapiens, UniProt Q9UQM7); assay: KINOMEscan kinase binding assay; conditions: kinase CAMK2A (Entrez CAMK2A)
T11 construct: purchased Eurofin/DiscoverX
Summary of the method: as §1

[13] = biological target: T12, 384 kinases from the human genome (Homo sapiens, UniProt Q12852); assay: KINOMEscan kinase binding assay; conditions: kinase DLK (Entrez MAP3K12)
T12 construct: purchased Eurofin/DiscoverX
Summary of the method: as §1

[14] = biological target: T13, 384 kinases from the human genome (Homo sapiens, UniProt Q8IWQ3); assay: KINOMEscan kinase binding assay; conditions: kinase BRSK2 (Entrez BRSK2)
T13 construct: purchased Eurofin/DiscoverX
Summary of the method: as §1

EGFR = assay: BRET concentration-response, EGFR of Fig1d source data; assay type: cell-based, human
HEK293 cells = conditions: Barbadin 100 µM; cited from earlier work

T10 sequence (P11802 whole entry): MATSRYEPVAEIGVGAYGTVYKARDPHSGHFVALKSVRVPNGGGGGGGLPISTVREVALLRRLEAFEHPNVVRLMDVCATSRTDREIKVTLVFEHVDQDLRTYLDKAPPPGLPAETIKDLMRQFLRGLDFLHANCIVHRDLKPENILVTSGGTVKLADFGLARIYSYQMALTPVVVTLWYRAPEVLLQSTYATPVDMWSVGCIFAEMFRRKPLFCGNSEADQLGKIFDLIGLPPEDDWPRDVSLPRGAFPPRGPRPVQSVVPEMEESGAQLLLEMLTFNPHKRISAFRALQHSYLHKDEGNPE
T11 sequence (Q9UQM7 whole entry): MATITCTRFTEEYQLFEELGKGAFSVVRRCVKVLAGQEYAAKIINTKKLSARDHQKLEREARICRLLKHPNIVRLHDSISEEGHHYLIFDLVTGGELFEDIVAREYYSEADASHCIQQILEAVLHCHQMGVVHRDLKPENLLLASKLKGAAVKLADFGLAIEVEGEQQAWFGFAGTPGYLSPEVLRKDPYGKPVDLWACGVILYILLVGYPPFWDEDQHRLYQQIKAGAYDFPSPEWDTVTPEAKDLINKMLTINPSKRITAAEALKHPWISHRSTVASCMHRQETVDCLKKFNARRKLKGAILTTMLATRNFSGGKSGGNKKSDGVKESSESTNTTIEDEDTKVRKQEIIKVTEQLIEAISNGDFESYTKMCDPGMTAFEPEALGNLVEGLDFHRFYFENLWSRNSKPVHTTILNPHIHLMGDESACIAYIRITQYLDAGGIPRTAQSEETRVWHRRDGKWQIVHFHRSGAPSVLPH
T7 sequence (Q9UQB9 whole entry): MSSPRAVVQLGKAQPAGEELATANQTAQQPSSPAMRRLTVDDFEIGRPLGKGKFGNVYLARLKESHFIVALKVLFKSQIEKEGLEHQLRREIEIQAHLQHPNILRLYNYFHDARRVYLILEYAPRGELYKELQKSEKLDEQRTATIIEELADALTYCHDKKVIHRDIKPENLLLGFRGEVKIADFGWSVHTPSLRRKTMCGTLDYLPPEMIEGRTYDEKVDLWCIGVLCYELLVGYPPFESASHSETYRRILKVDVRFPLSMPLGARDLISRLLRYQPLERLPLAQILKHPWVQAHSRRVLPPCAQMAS
T1 sequence (Q96BR1 whole entry): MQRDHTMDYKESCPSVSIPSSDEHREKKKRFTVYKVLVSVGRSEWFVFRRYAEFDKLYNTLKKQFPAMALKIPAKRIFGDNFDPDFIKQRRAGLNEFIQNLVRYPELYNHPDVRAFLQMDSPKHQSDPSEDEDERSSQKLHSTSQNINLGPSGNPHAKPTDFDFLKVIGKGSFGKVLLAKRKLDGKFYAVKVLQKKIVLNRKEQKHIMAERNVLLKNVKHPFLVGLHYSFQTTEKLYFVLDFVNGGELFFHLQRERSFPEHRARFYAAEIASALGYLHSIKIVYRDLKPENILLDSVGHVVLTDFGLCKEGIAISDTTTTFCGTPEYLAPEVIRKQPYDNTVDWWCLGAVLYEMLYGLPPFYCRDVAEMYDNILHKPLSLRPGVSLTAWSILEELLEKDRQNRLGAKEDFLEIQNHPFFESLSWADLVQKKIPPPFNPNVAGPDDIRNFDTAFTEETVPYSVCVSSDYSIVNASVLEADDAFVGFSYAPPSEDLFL
T5 sequence (Q13546 whole entry): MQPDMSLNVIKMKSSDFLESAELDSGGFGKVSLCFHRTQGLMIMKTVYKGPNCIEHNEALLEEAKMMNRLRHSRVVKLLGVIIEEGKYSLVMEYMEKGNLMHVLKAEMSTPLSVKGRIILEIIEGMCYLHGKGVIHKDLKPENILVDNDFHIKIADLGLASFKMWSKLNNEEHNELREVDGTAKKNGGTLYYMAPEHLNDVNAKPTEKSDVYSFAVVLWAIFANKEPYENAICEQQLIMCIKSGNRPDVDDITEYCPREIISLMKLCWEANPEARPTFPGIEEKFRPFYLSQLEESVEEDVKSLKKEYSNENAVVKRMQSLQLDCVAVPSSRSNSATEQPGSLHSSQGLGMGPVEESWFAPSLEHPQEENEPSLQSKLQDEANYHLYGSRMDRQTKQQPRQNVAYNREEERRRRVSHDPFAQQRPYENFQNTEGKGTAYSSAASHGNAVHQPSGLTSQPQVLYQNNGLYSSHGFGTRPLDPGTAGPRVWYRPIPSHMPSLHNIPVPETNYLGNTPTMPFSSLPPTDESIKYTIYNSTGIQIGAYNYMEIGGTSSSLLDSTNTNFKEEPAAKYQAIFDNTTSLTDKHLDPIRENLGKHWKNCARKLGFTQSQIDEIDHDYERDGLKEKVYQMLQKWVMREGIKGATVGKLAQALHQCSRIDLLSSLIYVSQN
T8 sequence (Q9UQ88 whole entry): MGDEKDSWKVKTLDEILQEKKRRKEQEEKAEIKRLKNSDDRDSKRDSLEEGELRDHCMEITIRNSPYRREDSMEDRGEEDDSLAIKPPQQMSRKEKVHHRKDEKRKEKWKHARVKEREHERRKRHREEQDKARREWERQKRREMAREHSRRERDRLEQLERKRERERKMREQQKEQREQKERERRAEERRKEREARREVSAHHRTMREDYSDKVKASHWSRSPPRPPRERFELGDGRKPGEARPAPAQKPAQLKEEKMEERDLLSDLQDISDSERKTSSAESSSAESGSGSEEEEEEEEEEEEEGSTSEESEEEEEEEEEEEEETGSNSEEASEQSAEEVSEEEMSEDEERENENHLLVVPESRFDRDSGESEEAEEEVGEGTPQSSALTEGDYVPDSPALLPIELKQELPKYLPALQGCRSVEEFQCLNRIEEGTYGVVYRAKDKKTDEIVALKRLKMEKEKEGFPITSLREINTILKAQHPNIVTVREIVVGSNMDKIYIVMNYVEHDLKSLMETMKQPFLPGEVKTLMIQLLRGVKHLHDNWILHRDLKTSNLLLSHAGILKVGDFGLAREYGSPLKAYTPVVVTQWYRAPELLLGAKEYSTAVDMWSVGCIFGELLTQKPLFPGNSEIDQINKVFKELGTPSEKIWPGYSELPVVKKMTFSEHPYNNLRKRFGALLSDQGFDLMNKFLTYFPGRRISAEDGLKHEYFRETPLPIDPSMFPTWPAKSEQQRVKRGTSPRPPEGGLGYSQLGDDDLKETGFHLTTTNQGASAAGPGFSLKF
T13 sequence (Q8IWQ3 whole entry): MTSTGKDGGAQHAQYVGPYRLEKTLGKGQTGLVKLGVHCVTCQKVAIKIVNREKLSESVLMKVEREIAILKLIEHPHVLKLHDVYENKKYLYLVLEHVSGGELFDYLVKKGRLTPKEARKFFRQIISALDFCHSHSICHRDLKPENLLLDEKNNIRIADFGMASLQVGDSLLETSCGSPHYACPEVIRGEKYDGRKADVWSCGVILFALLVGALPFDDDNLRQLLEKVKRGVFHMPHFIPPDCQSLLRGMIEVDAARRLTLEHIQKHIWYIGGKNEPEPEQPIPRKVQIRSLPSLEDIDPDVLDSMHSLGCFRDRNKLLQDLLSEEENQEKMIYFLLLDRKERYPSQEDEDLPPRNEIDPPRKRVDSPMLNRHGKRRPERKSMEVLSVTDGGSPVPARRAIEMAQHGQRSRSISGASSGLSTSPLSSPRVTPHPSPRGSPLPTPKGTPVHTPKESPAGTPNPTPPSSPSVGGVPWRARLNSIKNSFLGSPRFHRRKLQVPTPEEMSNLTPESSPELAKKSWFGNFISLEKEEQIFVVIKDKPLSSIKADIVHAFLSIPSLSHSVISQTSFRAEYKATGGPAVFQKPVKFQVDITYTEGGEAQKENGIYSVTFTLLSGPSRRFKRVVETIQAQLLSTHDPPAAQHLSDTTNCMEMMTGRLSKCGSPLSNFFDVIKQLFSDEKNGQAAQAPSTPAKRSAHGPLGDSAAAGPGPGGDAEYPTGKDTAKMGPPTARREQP
T9 sequence (P80192 whole entry): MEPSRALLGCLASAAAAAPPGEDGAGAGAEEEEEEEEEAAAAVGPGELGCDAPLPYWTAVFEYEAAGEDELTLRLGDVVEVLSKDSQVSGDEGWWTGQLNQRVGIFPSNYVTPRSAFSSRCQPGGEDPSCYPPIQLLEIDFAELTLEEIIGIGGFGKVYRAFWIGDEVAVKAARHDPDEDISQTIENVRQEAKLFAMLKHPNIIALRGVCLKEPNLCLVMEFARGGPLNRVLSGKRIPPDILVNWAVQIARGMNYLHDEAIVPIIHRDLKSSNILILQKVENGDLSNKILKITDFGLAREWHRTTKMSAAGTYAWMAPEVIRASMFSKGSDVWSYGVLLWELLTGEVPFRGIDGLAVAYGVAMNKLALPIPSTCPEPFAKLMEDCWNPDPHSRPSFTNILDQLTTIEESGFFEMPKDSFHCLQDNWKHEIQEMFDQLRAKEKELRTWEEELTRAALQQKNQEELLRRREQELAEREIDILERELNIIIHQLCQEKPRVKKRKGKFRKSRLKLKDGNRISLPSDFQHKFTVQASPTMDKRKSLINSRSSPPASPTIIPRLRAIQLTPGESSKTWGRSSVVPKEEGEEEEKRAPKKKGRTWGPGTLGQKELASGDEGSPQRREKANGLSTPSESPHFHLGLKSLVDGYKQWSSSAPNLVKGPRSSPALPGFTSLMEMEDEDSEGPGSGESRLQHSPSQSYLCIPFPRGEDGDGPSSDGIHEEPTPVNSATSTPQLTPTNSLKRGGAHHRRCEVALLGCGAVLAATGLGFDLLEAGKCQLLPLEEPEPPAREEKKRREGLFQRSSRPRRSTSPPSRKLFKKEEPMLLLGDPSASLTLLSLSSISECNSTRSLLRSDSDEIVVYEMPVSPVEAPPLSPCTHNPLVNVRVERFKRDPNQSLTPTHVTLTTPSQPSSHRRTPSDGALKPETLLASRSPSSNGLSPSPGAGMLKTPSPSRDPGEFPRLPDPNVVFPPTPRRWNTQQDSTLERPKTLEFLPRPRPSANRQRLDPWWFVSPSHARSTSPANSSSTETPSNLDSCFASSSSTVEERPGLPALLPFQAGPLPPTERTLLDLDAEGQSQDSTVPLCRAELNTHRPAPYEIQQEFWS

For `CC(C)C(=O)N1CCN(c2ccc(NC(=O)c3cc4ccccc4o3)cc2Cl)CC1` [Compound 21], the “Percent Control” value [1] was 91%, the “Percent Control” value [2] was 90% and the “binding to ERK subtypes” value [3] was “failed to bind”. The “binding to MEK subtypes” value [3] was “failed to bind”, the “binding to PI3K subtypes” value [3] was “failed to bind” and the “binding to different Akt subtypes” value [3] was “failed to bind”. For the same molecule, the “Percent Control” value [4] was 100%, the “Percent Control” value [5] was 100% and the “Percent Control” value [6] was 76%. For the same molecule, the “Percent Control” value [7] was 97%, the “Percent Control” value [8] was 87% and the “Percent Control” value [9] was 95%. For the same molecule, the “Percent Control” value [10] was 96%, the “Percent Control” value ([11]; kinase CDK4 (Entrez CDK4)) was 97% and the “Percent Control” value ([11]; kinase CDK4-cyclinD1 (Entrez CDK4)) was 86%. The “Percent Control” value ([11]; kinase CDK4-cyclinD3 (Entrez CDK4)) was 96%, the “Percent Control” value [12] was 100% and the “Percent Control” value [13] was 100%. The “Percent Control” value [14] was 97%, the “EGFR, ligand-promoted BRET (Mean)” value (EGFR; Log [Comp21] (M) -4.3) was 103.469 percent compared to DMSO and the “EGFR, ligand-promoted BRET (Mean)” value (EGFR; Log [Comp21] (M) -4.6) was 97.8054 percent compared to DMSO. The “EGFR, ligand-promoted BRET (Mean)” value (EGFR; Log [Comp21] (M) -5) was 87.6772 percent compared to DMSO, the “EGFR, ligand-promoted BRET (Mean)” value (EGFR; Log [Comp21] (M) -5.3) was 105.328 percent compared to DMSO and the “EGFR, ligand-promoted BRET (Mean)” value (EGFR; Log [Comp 21] (M) -6) was 96.2669 percent compared to DMSO. For the same molecule, the “EGFR, ligand-promoted BRET (Mean)” value (EGFR; Log [Comp21] (M) -6.3) was 100.826 percent compared to DMSO and the “EGFR, ligand-promoted BRET (Mean)” value (EGFR; Log [Comp 21] (M) -7) was 105.279 percent compared to DMSO.

In the case of `Nn1cnc2scc(-c3ccc(Cc4ccccc4)cc3)c2c1=O` [Barbadin, reference compound], the “toxicity to HEK293 cells (flat, cobblestone appearance retained)” value (HEK293 cells) is given as “non-toxic to cells; also recorded: nontoxic”.
